According to paper PMC3929086, “Targeted manipulation of the sortilin–progranulin axis rescues progranulin haploinsufficiency” (Human Molecular Genetics, 2013):

What was measured:
[1] = test system: PGRN endocytosis in SORT1^KO-hESCs; experiment: DyL-rPGRN endocytosis in SORT1^KO-hESCs; format: cell-based, human; details: SORT1^KO-hESC
From the text: (§1) To determine whether BVFP, when bound to PGRN, disrupts full-length PGRN and SORT1 binding, we devised a SORT1-dependent rPGRN precipitation assay utilizing the Meso-Scale Discovery (MSD) system (Supplementary Material, Fig. S4A and B). […] To include a higher-affinity PGRN588–593 motif binder as a positive control, an antibody targeting the motif, PGRN-CT antibody, was made for validating the approach (Fig. 5F). […] First, we found SORT1 was abundantly expressed in the wild-type hESCs (Fig. 5H). Similar to the results from COS-1^SORT1 cells, BVFP and PGRN-CT antibody inhibited endocytosis of DyL-rPGRN by 22 and 39%, respectively, under the same experimental conditions in wild-type hESCs (Fig. 5I left).
(§2) COS-1 cells seeded on a 96-well black plate 1 day before were transfected with pCMV-SORT1 vector. After 24 h, cells were treated with fluorescence-tagged rPGRN (DyL-rPGRN) pre-labeled by DyLight™ 594 antibody labeling kit (Thermo Scientific). The DyL-rPGRN was diluted in OptiMEM to tested concentrations and incubated with the cells for 1 h for endocytosis. The cells were then washed with cold PBS and then fixed by 4% paraformaldehyde. After washing twice, each well was filled with PBS prior scanning. The total PGRN fluorescent signal from the cells was obtained by a plate reader with 593/618 nm (Ex/Em) settings. […]

[2] = biological target: PGRN588–593 peptide (Homo sapiens, UniProt P28799); experiment: Epic biochemical binding assay (resonant waveguide grating); details: PGRN588–593 peptide immobilized; PBS with 5% DMSO; 30 min binding; n = 4
From the text: page 6: SUPPLEMENTARY METHODS AND RESULTS Epic(R) biochemical assay and compound library screen Essentially, the Epic® is a spectrophotometric reader that uses a resonant waveguide grating detection mechanism to detect biochemical interactions (Fig.5A). In brief, the waveguide grating biosensor in each well of the 384-well assay plate intercepts broadband light and measures changes in resonant wavelengths (in picometers, pm) when a ligand binds to the target protein immobilized on the biosensor. To identify chemical binders of the PGRN588-593 peptide, we immobilized the peptide onto the biosensor surface of Epic® assay plates using an amine- coupling method, and screened 4,800 compounds. For immobilization, 150 µg/ml peptide diluted in a 20 mM sodium acetate buffer, pH 5, was added to the assay plate to incubate for overnight at 4 °C. The plate was then washed in binding buffer (PBS with 5% DMSO) for three times and equilibrated in the binding buffer for 6 h in the Epic® carousal. During the equilibration period, compounds from the library stock plate (CNS-set compound library from Chembridge®) were diluted to 50 µM in binding buffer. Each compound was tested in quadruplicate. After the equilibration, a Baseline Reading was acquired by the Epic® spectrophotometer. […] After mixing and a 30 min ‘binding’ period, a Final Reading was acquired. […]

[3] = test system: PGRN endocytosis in WT-hESCs; experiment: DyL-rPGRN endocytosis in wild-type hESCs; format: cell-based; details: Homo sapiens; WT-hESC, BVFP, same conditions as COS-1^SORT1 (5 μM)
From the text: as §1, §2

[4] = test system: PGRN(588–593) peptide; experiment: UV-absorption titration of BVFP with PGRN(588–593) peptide; format: binding, human; details: 20 μM BVFP, PGRN(588–593) peptide titrated
Experimental: Stock solutions of compound BVFP (20 mM) and PGRN(588–593) peptide (12.96 mM) were prepared in DMSO and water, respectively. For the UV absorption experiment, both components were diluted to give final concentrations of 20 μM BVFP and 324 μM peptide. The interaction between BVFP and the PGRN(588–593) peptide was monitored by scanning over the UV absorbance range of 200–800 nm on a Cary 3 Bio UV–visible spectrophotometer (Varian), as a small amount of KKGRN peptide (0.1 equivalence/1 μl per addition) was titrated into the 20 μM BVFP sample. In addition to baseline correction with DMSO, a control titration experiment using water in place of the PGRN(588–593) peptide was performed under identical conditions in order to correct for potential spectral changes owing to sample dilution.

[5] = test system: SORT1–PGRN interaction; experiment: MSD-based SORT1–PGRN interaction assay; format: biochemical, human; details: BVFP 20 and 200 μM pre-incubated 30 min with 200 nM N-rP
Experimental: M17 cells were transfected with pCMV-SORT1-Flag for 48 h. Then, the cell lysate was harvested by the same method used in the co-immunoprecipitation assay. Expression of SORT1-Flag protein was confirmed by western blot. MSD plate was first coated with the Flag M2 antibody (Sigma). Following an overnight incubation at 4°C, the plate was blocked for 2 h and then washed prior to addition of 5 µg/well of lysate protein containing SORT1-Flag protein. After overnight incubation at 4°C, it was then washed and added with 200 nM of either N-6His- or C-6His-tagged rPGRN pre-incubated with either vehicle, 20 µM or 200 µM of BVFP, for 30 min at room temperature. Then plate was then incubated for 2 h, washed and incubated with a mixture of PCDGF antibody and a SULFO-TAG-labeled anti-rabbit IgG antibody for 2 h. After final wash, the plate was read by the MSD Sector Imager 2400.

[6] = test system: SORT1-mediated PGRN endocytosis; experiment: Quantitative DyL-rPGRN endocytosis assay in COS-1^SORT1 cells; format: cell-based, human; details: COS-1^SORT1, 5 μM binder pre-incubated 1 h with rPGRN, 1 h endocytosis
Experimental: COS-1 cells seeded on a 96-well black plate 1 day before were transfected with pCMV-SORT1 vector. After 24 h, cells were treated with fluorescence-tagged rPGRN (DyL-rPGRN) pre-labeled by DyLight™ 594 antibody labeling kit (Thermo Scientific). The DyL-rPGRN was diluted in OptiMEM to tested concentrations and incubated with the cells for 1 h for endocytosis. The cells were then washed with cold PBS and then fixed by 4% paraformaldehyde. After washing twice, each well was filled with PBS prior scanning. The total PGRN fluorescent signal from the cells was obtained by a plate reader with 593/618 nm (Ex/Em) settings. The endocytosis signal was normalized by the total nuclei signal obtained by staining with a Hoechst 33342 dye. Baseline endocytosis signal was defined as a signal from medium-only-treated cells, whereas the 100% endocytosis level was set as the signal obtained from cells treated with 50 nM DyL-rPGRN. For testing SORT1 ligands, DyL-rPGRN and the peptide were added simultaneously to the cells. For testing of PGRN binders, the binder was pre-incubated with DyL-rPGRN for 1 h before adding to the cells. For qualitative analysis, images from each well were captured by BD Pathway 855 system using a 20× magnification setting.

[7] = test system: GRN expression; details: HDAC inhibitor; cited from earlier work
From the text: While new strategies designed to upregulate PGRN levels have emerged, challenges remain in terms of limiting off-target effects. […] However, because HDAC and V-ATPase inhibitors can potentially affect a wide-range of genes at transcriptional and po ...

[8] = test system: elastase; experiment: Elastase digestion of rPGRN in cell culture media; format: in vitro ADME; details: in vitro reaction with EL in culture media; compared with WT rPGRN, western blot
Experimental: PGRN, SORT1, GFP, GAPDH and β-actin proteins were analyzed using 10% Tris–glycine polyacrylamide gel by SDS–PAGE. After electrophoresis, proteins on gel were transblotted to PVDF membranes followed by standard immunoblotting protocols.

[9] = test system: SORT1; experiment: PGRN endocytosis in M17 cells overexpressing SORT1; format: cell-based; details: M17 cells overexpressing SORT1, after EL reaction
Experimental: M17 cells seeded in 12-well culture plates (western blot) or on glass coverslips in 24-well culture plate (immunofluorescence) were transfected with pEGFP-N1 (Clontech) or pCMV-SORT1 (OriGene) vectors. Next day, the cells were changed into serum-free medium 1 h before addition of rPGRN (500 ng/ml) and treated for 60 min. The cells were then put on ice and washed with cold PBS. For western blot, cells were lysed in cold M-Per protein extraction buffer followed by standard procedures as mentioned. For immunofluorescence analyses, cells were fixed in 4% paraformaldehyde solution followed by PBS washes. The cells were then incubated in blocking buffer (PBS, 5% goat serum, 0.1% saponin) for 1 h at room temperature followed by incubation in primary antibody overnight at 4°C. The cells were incubated with secondary antibodies (1:1000) for 1 h at room temperature. The coverslips were then mounted onto slides and waited overnight before analysis. Image analysis was performed by Zeiss LSM 510 META confocal microscope using 60× magnification setting.

O=c1nc(C=Cc2cccc(Br)c2)cc(C(F)(F)F)[nH]1 [BVFP, 4-[2-(3-bromophenyl)vinyl]-6-(trifluoromethyl)-2(1H)-pyrimidinone]
effect on DyL-rPGRN endocytosis [1]: no effect on DyL-rPGRN endocytosis | Kd [2]: 20 µM | inhibition at 5 µM [3]: 22% | UV-absorption change upon peptide titration [4]: shift in the ultraviolet(UV)-absorption spectra of BVFP and distinct changes of absorption intensities | isosbestic point [4]: 313 nm | inhibition of rPGRN binding to immobilized SORT1 [5]: dose-dependent inhibition of rPGRN binding to immobilized SORT1 | inhibition of DyL-rPGRN endocytosis [6]: 23%

O=C(CCCCCCC(=O)Nc1ccccc1)NO [suberoylanilide hydroxamic acid]
GRN expression [7]: enhancer of GRN expression

B1: A588G-rPGRN: rPGRN with Ala-to-Gly mutation at the A588 elastase cleavage site (protein)
chain: TRCPDGQFCPVACCLDPGGASYSCCRPLLDKWPTTLSRHLGGPCQVDAHCSAGHSCIFTVSGTSSCCPFPEAVACGDGHHCCPRGFHCSADGRSCFQRSGNNSVGAIQCPDSQFECPDFSTCCVMVDGSWGCCPMPQASCCEDRVHCCPHGAFCDLVHTRCITPTGTHPLAKKLPAQRTNRAVALSSSVMCPDARSRCPDGSTCCELPSGKYGCCPMPNATCCSDHLHCCPQDTVCDLIQSKCLSKENATTDLLTKLPAHTVGDVKCDMEVSCPDGYTCCRLQSGAWGCCPFTQAVCCEDHIHCCPAGFTCDTQKGTCEQGPHQVPWMEKAPAHLSLPDPQALKRDVPCDNVSSCPSSDTCCQLTSGEWGCCPIPEAVCCSDHQHCCPQGYTCVAEGQCQRGSEIVAGLEKMPARRASLSHPRDIGCDQHTSCPVGQTCCPSLGGSWACCQLPHAVCCEDRQHCCPAGYTCNVKARSCEKEVVSAQPATFLARSPHVGVKDVECGEGHFCHDNQTCCRDNRQGWACCPYRQGVCCADRRHCCPAGFRCAARGTKCLRREAPRWDAPLRDPGLRQLL
modifications: left off: His6, end not stated, state not stated
notes: rPGRN with Ala-to-Gly mutation at the A588 elastase cleavage site
resistance to elastase (residual full-length protein in medium) [8]: more resistant to EL activity | uptake after elastase treatment [9]: endocytosed by cells to a similar extent compared with no EL control
